Assay: Solubility comparison in water and aqueous acetate buffer at pH 4.5

Substance: Tolebrutinib [Tolebrutinib Form CSI]
- solubility: < 200 µg/mL

— patent publication US20250188076A1, “SOLID STATE FORMS OF TOLEBRUTINIB AND OF TOLEBRUTINIB SALTS” (TEVA PHARMACEUTICAL INTERNATIONAL GMBH, priority 2022, published 2025)
